Assay results: US12247010B2, “Tubulin inhibitors” (LIN BIOSCIENCE PTY LTD., priority 2017, dated 2025)

Test system: U87MG cells
Experiment: Cytotoxicity assay (cell viability, CellTiter 96 Aqueous MTS)
Assay type: cell-based
Conditions: Homo sapiens, U-87 MG, 72 h, 72 hours incubation, starting concentration 50 uM, 9 point half log dilution, average where tested repeatedly
Protocol: Example 3: Cytotoxicity Assay
U87MG cells were plated at a density of 7×10^3 cells/well and allowed to seed overnight. Cells were then treated with compounds from Table 1 or CMPD-1 (4-(2′-fluoro-[1,1′-biphenyl]-4-yl)-N-(4-hydroxyphenyl)butanamide as a positive control) were added to cells at a starting concentration of 50 uM, with a 9 point half log dilution, and incubated for 72 hours prior to viability determination. IC50 values were calculated from cell viability as measured using the CellTiter 96® Aqueous MTS reagent from Promega©, and the results are shown in Table 2.

Row | Compound | IC50 [µM]
1 | O=C(NCCCc1ccc(-c2ccccc2F)cc1)c1ccc2c(c1)OCCO2 [Compound 91, N-(3-(2′-fluoro-[1,1′-biphenyl]-4-yl)propyl)-2,3-dihydrobenzo[b] [1,4]dioxine-6-carboxamide] | > 5
2 | Cn1cnc2cc(C(=O)NCCCc3ccc(-c4ccccc4F)cc3)cnc21 [Compound 95, N-(3-(2′-fluoro-[1,1′-biphenyl]-4-yl)propyl)-3-methyl-3H-imidazo[4,5-b]pyridine-6-carboxamide] | < 0.5
3 | Cc1ccc(C(=O)NCCCc2ccc(-c3ccccc3F)cc2)c(C)n1 [Compound 99, N-(3-(2′-fluoro-[1,1′-biphenyl]-4-yl)propyl)-2,6-dimethylnicotinamide] | 1 to 5
4 | Cc1nc2cc(C(=O)NCCCc3ccc(-c4ccccc4F)cc3)ccc2[nH]1 [Compound 100, N-(3-(2′-fluoro-[1,1′-biphenyl]-4-yl)propyl)-2-methyl-1H-benzo[d]imidazole-5-carboxamide] | > 5
5 | O=C(Cc1noc2ccccc12)NCCCc1ccc(-c2ccccc2F)cc1 [Compound 102, 2-(benzo[d]isoxazol-3-yl)-N-(3-(2′-fluoro-[1,1′-biphenyl]-4-yl)propyl)acetamide] | > 5
6 | Nc1ccc(C(=O)NCCCc2ccc(-c3ccccc3F)cc2)cn1 [Compound 105, 6-amino-N-(3-(2′-fluoro-[1,1′-biphenyl]-4-yl)propyl)nicotinamide] | < 0.5
7 | Cn1nccc1C(=O)NCCCc1ccc(-c2ccccc2F)cc1 [Compound 106, N-(3-(2′-fluoro-[1,1′-biphenyl]-4-yl)propyl)-1-methyl-1H-pyrazole-5-carboxamide] | 0.501 to 1
8 | O=C(NCCCc1ccc(-c2ccccc2F)cc1)C(F)(F)c1ccccc1 [Compound 108, 2,2-difluoro-N-(3-(2′-fluoro-[1,1′-biphenyl]-4-yl)propyl)-2-phenylacetamide] | < 0.5
9 | CCn1nc(C)cc1C(=O)NCCCc1ccc(-c2ccccc2F)cc1 [Compound 109, 1-ethyl-N-(3-(2′-fluoro-[1,1′-biphenyl]-4-yl)propyl)-3-methyl-1H-pyrazole-5-carboxamide] | 0.501 to 1
10 | COc1ccc(CC(=O)NCCCc2ccc(-c3ccccc3F)cc2)cc1OC [Compound 110, 2-(3,4-dimethoxyphenyl)-N-(3-(2′-fluoro-[1,1′-biphenyl]-4-yl)propyl)acetamide] | > 5
11 | O=C(NCCCc1ccc(-c2ccccc2F)cc1)c1ccno1 [Compound 111, N-(3-(2′-fluoro-[1,1′-biphenyl]-4-yl)propyl)isoxazole-5-carboxamide] | > 5
12 | CCOc1ccc(CC(=O)NCCCc2ccc(-c3ccccc3F)cc2)cc1 [Compound 112, 2-(4-ethoxyphenyl)-N-(3-(2′-fluoro-[1,1′-biphenyl]-4-yl)propyl)acetamide] | 1 to 5
13 | O=C(NCCCc1ccc(-c2ccccc2F)cc1)c1cc[nH]n1 [Compound 113, N-(3-(2′-fluoro-[1,1′-biphenyl]-4-yl)propyl)-1H-pyrazole-3-carboxamide] | > 5
14 | COc1ccc(CC(=O)NCCCc2ccc(-c3ccccc3F)cc2)c(OC)c1 [Compound 114, 2-(2,4-dimethoxyphenyl)-N-(3-(2′-fluoro-[1,1′-biphenyl]-4-yl)propyl)acetamide] | > 5
15 | O=C(NCCCc1ccc(-c2ccccc2F)cc1)c1c[nH]c2ccccc12 [Compound 117, N-(3-(2′-fluoro-[1,1′-biphenyl]-4-yl)propyl)-1H-indole-3-carboxamide] | > 5
16 | O=C(NCCCc1ccc(-c2ccccc2F)cc1)c1cc[nH]c1 [Compound 118, N-(3-(2′-fluoro-[1,1′-biphenyl]-4-yl)propyl)-1H-pyrrole-3-carboxamide] | > 5
17 | O=C(Cc1ccc(OC(F)(F)F)cc1)NCCCc1ccc(-c2ccccc2F)cc1 [Compound 120, N-(3-(2′-fluoro-[1,1′-biphenyl]-4-yl)propyl)-2-(4-(trifluoromethoxy)phenyl)acetamide] | 0.501 to 1
18 | CC(=O)Nc1ccc(C(=O)NCCCc2ccc(-c3ccccc3F)cc2)cn1 [Compound 121, 6-acetamido-N-(3-(2′-fluoro-[1,1′-biphenyl]-4-yl)propyl)nicotinamide] | 1 to 5
19 | O=C(NCCCc1ccc(-c2ccccc2F)cc1)c1ccc2nccnc2c1 [Compound 123, N-(3-(2′-fluoro-[1,1′-biphenyl]-4-yl)propyl)quinoxaline-6-carboxamide] | > 5
20 | O=C(Cn1ccnc1)NCCCc1ccc(-c2ccccc2F)cc1 [Compound 124, N-(3-(2′-fluoro-[1,1′-biphenyl]-4-yl)propyl)-2-(1H-imidazol-1-yl)acetamide] | > 5
21 | Cc1cc(C(=O)NCCCc2ccc(-c3ccccc3F)cc2)nn1C [Compound 125, N-(3-(2′-fluoro-[1,1′-biphenyl]-4-yl)propyl)-1,5-dimethyl-1H-pyrazole-3-carboxamide] | > 5
22 | COc1ccc(CC(=O)NCCCc2ccc(-c3ccccc3F)cc2)cc1F [Compound 126, 2-(3-fluoro-4-methoxyphenyl)-N-(3-(2′-fluoro-[1,1′-biphenyl]-4-yl)propyl)acetamide] | 1 to 5

Row | Compound | IC50 [µM]
23 | Cc1cc(C(=O)NCCCc2ccc(-c3ccccc3F)cc2)cc(C)c1O [Compound 127, N-(3-(2′-fluoro-[1,1′-biphenyl]-4-yl)propyl)-4-hydroxy-3,5-dimethylbenzamide] | > 5
24 | Cc1cc(C(=O)NCCCc2ccc(-c3ccccc3F)cc2)on1 [Compound 128, N-(3-(2′-fluoro-[1,1′-biphenyl]-4-yl)propyl)-3-methylisoxazole-5-carboxamide] | 0.501 to 1
25 | Cn1cncc1C(=O)NCCCc1ccc(-c2ccccc2F)cc1 [Compound 130, N-(3-(2′-fluoro-[1,1′-biphenyl]-4-yl)propyl)-1-methyl-1H-imidazole-5-carboxamide] | > 5
26 | O=C(NCCCc1ccc(-c2ccccc2F)cc1)c1cnco1 [Compound 131, N-(3-(2′-fluoro-[1,1′-biphenyl]-4-yl)propyl)oxazole-5-carboxamide] | > 5
27 | Cc1cnc(C(=O)NCCCc2ccc(-c3ccccc3F)cc2)s1 [Compound 132, N-(3-(2′-fluoro-[1,1′-biphenyl]-4-yl)propyl)-5-methylthiazole-2-carboxamide] | > 5
28 | Cc1nn(C)cc1C(=O)NCCCc1ccc(-c2ccccc2F)cc1 [Compound 133, N-(3-(2′-fluoro-[1,1′-biphenyl]-4-yl)propyl)-1,3-dimethyl-1H-pyrazole-4-carboxamide] | > 5
29 | O=C(NCCCc1ccc(-c2ccccc2F)cc1)c1ccc[nH]1 [Compound 134, N-(3-(2′-fluoro-[1,1′-biphenyl]-4-yl)propyl)-1H-pyrrole-2-carboxamide] | 1 to 5
30 | O=C(NCCCc1ccc(-c2ccccc2F)cc1)c1cnc2ccccn12 [Compound 137, N-(3-(2′-fluoro-[1,1′-biphenyl]-4-yl)propyl)imidazo[1,2-a]pyridine-3-carboxamide] | 1 to 5
31 | Cc1cc(C(=O)NCCCc2ccc(-c3ccccc3F)cc2)[nH]n1 [Compound 139, N-(3-(2′-fluoro-[1,1′-biphenyl]-4-yl)propyl)-3-methyl-1H-pyrazole-5-carboxamide] | 0.501 to 1
32 | Cc1ccc(CC(=O)NCCCc2ccc(-c3ccccc3F)cc2)cc1 [Compound 140, N-(3-(2′-fluoro-[1,1′-biphenyl]-4-yl)propyl)-2-(p-tolyl)acetamide] | < 0.5
33 | Cc1nc(C(=O)NCCCc2ccc(-c3ccccc3F)cc2)cs1 [Compound 141, N-(3-(2′-fluoro-[1,1′-biphenyl]-4-yl)propyl)-2-methylthiazole-4-carboxamide] | > 5
34 | CC(C)c1cc(C(=O)NCCCc2ccc(-c3ccccc3F)cc2)n(C)n1 [Compound 142, N-(3-(2′-fluoro-[1,1′-biphenyl]-4-yl)propyl)-3-isopropyl-1-methyl-1H-pyrazole-5-carboxamide] | > 5
35 | Cn1nc2ccccc2c1C(=O)NCCCc1ccc(-c2ccccc2F)cc1 [Compound 143, N-(3-(2′-fluoro-[1,1′-biphenyl]-4-yl)propyl)-2-methyl-2H-indazole-3-carboxamide] | > 5
36 | Cc1noc(C)c1C(=O)NCCCc1ccc(-c2ccccc2F)cc1 [Compound 144, N-(3-(2′-fluoro-[1,1′-biphenyl]-4-yl)propyl)-3,5-dimethylisoxazole-4-carboxamide] | > 5
37 | Cc1cnoc1C(=O)NCCCc1ccc(-c2ccccc2F)cc1 [Compound 145, N-(3-(2′-fluoro-[1,1′-biphenyl]-4-yl)propyl)-4-methylisoxazole-5-carboxamide] | > 5
38 | Cn1cc(C(=O)NCCCc2ccc(-c3ccccc3F)cc2)cn1 [Compound 146, N-(3-(2′-fluoro-[1,1′-biphenyl]-4-yl)propyl)-1-methyl-1H-pyrazole-4-carboxamide] | 1 to 5
39 | Cn1ncc2cc(-c3ccc(CCCC(=O)Nc4cccnc4)cc3)ccc21 [Compound 148, 4-(4-(1-methyl-1H-indazol-5-yl)phenyl)-N-(pyridin-3-yl)butanamide] | < 0.5
40 | O=C(CCCc1ccc(-c2cccc(F)c2F)cc1)Nc1cccnc1 [Compound 149, 4-(2′,3′-difluoro-[1,1′-biphenyl]-4-yl)-N-(pyridin-3-yl)butanamide] | 0.501 to 1
41 | O=C(CCCc1ccc(-c2ccccc2)cc1)Nc1cccnc1 [Compound 151, 4-([1,1′-biphenyl]-4-yl)-N-(pyridin-3-yl)butanamide] | 1 to 5
42 | Cc1ccccc1-c1ccc(CCCC(=O)Nc2cccnc2)cc1 [Compound 152, 4-(2′-methyl-[1,1′-biphenyl]-4-yl)-N-(pyridin-3-yl)butanamide] | > 5
43 | Cc1ccc(-c2ccc(CCCC(=O)Nc3cccnc3)cc2)cn1 [Compound 153, 4-(4-(6-methylpyridin-3-yl)phenyl)-N-(pyridin-3-yl)butanamide] | > 5
44 | O=C(CCCc1ccc(-c2ccccc2OC(F)(F)F)cc1)Nc1cccnc1 [Compound 154, N-(pyridin-3-yl)-4-(2′-(trifluoromethoxy)-[1,1′-biphenyl]-4-yl)butanamide] | 1 to 5
